In patent US20150105252A1, “SUBSTITUTED PYRAZOLES AS HERBICIDES” (E I DU PONT DE NEMOURS AND COMPANY, priority 2013, published 2015):

How the values were obtained:
[1] = test system: crabgrass, large; experiment: Test A preemergence; assay type: in vivo, Digitaria sanguinalis; details: preemergence; for Crabgrass, Large plant response rating (0 to 100 scale): 125 g ai/ha, visual injury approx. 10 days after treatment; for Crabgrass, Large plant response rating: 500 g ai/ha, visual injury after approx. 10 days, 0 to 100 scale (0 no effect, 100 complete control)
Procedure, shortened: (§1)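 Visual injury ratings, 0 = no effect to 100 = complete control, taken about 10 days after treatment against untreated controls. Test chemicals, in a non-phytotoxic surfactant-containing solvent, were sprayed onto soil preemergence or onto one- to two-leaf plants (2–10 cm) postemergence, in loam–sand soil under greenhouse conditions.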

[2] = test system: barnyardgrass; experiment: Test B flood; assay type: in vivo, Echinochloa crus-galli; details: 250 g ai/ha, visual rating on 0 to 100 scale (0 no effect, 100 complete control), 13 to 15 days
Procedure, shortened: (§2)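 Greenhouse assay lasting 13 to 15 days. Treatment was into water flooding pots 3 cm deep, at the 2-leaf stage, with that level sustained afterwards. Scores compare treated with control plants visually, 100 denoting complete control and 0 no effect; a dash marks no test result.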

[3] = test system: ducksalad; experiment: Test B flood; assay type: in vivo, Heteranthera limosa; details: 250 g ai/ha, visual rating on 0 to 100 scale (0 no effect, 100 complete control), 13 to 15 days
Procedure, shortened: as §2

[4] = test system: morningglory; experiment: Test A postemergence; assay type: in vivo, Ipomoea spp.
Procedure, shortened: as §1

[5] = test system: foxtail, giant; experiment: Test A postemergence; assay type: in vivo, Setaria faberii
Procedure, shortened: as §1

[6] = test system: wheat; experiment: Test A preemergence; assay type: in vivo, Triticum aestivum; details: preemergence; for Wheat plant response rating (0 to 100 scale): 125 g ai/ha, visual injury approx. 10 days after treatment; for Wheat plant response rating: 500 g ai/ha, visual injury after approx. 10 days, 0 to 100 scale (0 no effect, 100 complete control)
Procedure, shortened: as §1

[7] = test system: barnyardgrass; experiment: Test A preemergence; assay type: in vivo, Echinochloa crus-galli; details: preemergence
Procedure, shortened: as §1

[8] = test system: wheat; experiment: Test A postemergence; assay type: in vivo, Triticum aestivum
Procedure, shortened: as §1

[9] = test system: crabgrass, large; experiment: Test A postemergence; assay type: in vivo, Digitaria sanguinalis
Procedure, shortened: as §1

[10] = test system: foxtail, giant; experiment: Test A preemergence; assay type: in vivo, Setaria faberii; details: preemergence; for Foxtail, Giant plant response rating (0 to 100 scale): 125 g ai/ha, visual injury approx. 10 days after treatment; for Foxtail, Giant plant response rating: 500 g ai/ha, visual injury after approx. 10 days, 0 to 100 scale (0 no effect, 100 complete control)
Procedure, shortened: as §1

[11] = test system: velvetleaf; experiment: Test A preemergence; assay type: in vivo, Abutilon theophrasti; details: preemergence; for Velvetleaf plant response rating (0 to 100 scale): 125 g ai/ha, visual injury approx. 10 days after treatment; for Velvetleaf plant response rating: 500 g ai/ha, visual injury after approx. 10 days, 0 to 100 scale (0 no effect, 100 complete control)
Procedure, shortened: as §1

[12] = test system: velvetleaf; experiment: Test A postemergence; assay type: in vivo, Abutilon theophrasti
Procedure, shortened: as §1

[13] = test system: pigweed; experiment: Test A preemergence; assay type: in vivo, Amaranthus retroflexus; details: preemergence; for Pigweed plant response rating (0 to 100 scale): 125 g ai/ha, visual injury approx. 10 days after treatment; for Pigweed plant response rating: 500 g ai/ha, visual injury after approx. 10 days, 0 to 100 scale (0 no effect, 100 complete control)
Procedure, shortened: as §1

[14] = test system: pigweed; experiment: Test A postemergence; assay type: in vivo, Amaranthus retroflexus
Procedure, shortened: as §1

[15] = test system: barnyardgrass; experiment: Test A postemergence; assay type: in vivo, Echinochloa crus-galli
Procedure, shortened: as §1

[16] = test system: corn; experiment: Test A postemergence; assay type: in vivo, Zea mays
Procedure, shortened: as §1

[17] = test system: morningglory; experiment: Test A preemergence; assay type: in vivo, Ipomoea spp.; details: preemergence; for Morningglory plant response rating (0 to 100 scale): 125 g ai/ha, visual injury approx. 10 days after treatment; for Morningglory plant response rating: 500 g ai/ha, visual injury after approx. 10 days, 0 to 100 scale (0 no effect, 100 complete control)
Procedure, shortened: as §1

[18] = test system: rice; experiment: Test B flood; assay type: in vivo, Oryza sativa; details: 250 g ai/ha, visual rating on 0 to 100 scale (0 no effect, 100 complete control), 13 to 15 days
Procedure, shortened: as §2

[19] = test system: sedge, umbrella; experiment: Test B flood; assay type: in vivo, Cyperus difformis; details: 250 g ai/ha, visual rating on 0 to 100 scale (0 no effect, 100 complete control), 13 to 15 days
Procedure, shortened: as §2

[20] = test system: corn; experiment: Test A preemergence; assay type: in vivo, Zea mays; details: preemergence; for Corn plant response rating (0 to 100 scale): 125 g ai/ha, visual injury approx. 10 days after treatment; for Corn plant response rating: 500 g ai/ha, visual injury after approx. 10 days, 0 to 100 scale (0 no effect, 100 complete control)
Procedure, shortened: as §1

[21] = Postemergence, 500 g ai/ha, 0 to 100 scale (0 no effect, 100 complete control)
[22] = postemergence, 125 g ai/ha, about 10 days, visual rating on 0 to 100 scale (0 no effect, 100 complete control)
[23] = 125 g ai/ha, visual injury, 0 to 100 scale, approx. 10 days
[24] = 500 g ai/ha, visual injury after approx. 10 days, 0 to 100 scale (0 no effect, 100 complete control)

Row | Compound | Crabgrass, Large plant response rating (0 to 100 scale) [1] | Crabgrass, Large plant response rating [1] | Plant response rating, Barnyardgrass [2] | Plant response rating, Ducksalad [3] | Morningglory plant response rating [4, 21] | Morningglory plant response rating [4, 22] | Foxtail, Giant plant response rating [5, 21] | Foxtail, Giant plant response rating [5, 22] | Wheat plant response rating (0 to 100 scale) [6] | Wheat plant response rating [6] | Barnyardgrass plant response rating [7, 23] | Barnyardgrass plant response rating [7, 24] | Wheat plant response rating [8, 21] | Wheat plant response rating [8, 22] | Crabgrass, Large plant response rating [9, 21] | Crabgrass, Large plant response rating [9, 22] | Foxtail, Giant plant response rating (0 to 100 scale) [10] | Foxtail, Giant plant response rating [10] | Velvetleaf plant response rating (0 to 100 scale) [11] | Velvetleaf plant response rating [11] | other results
1 | CCc1cc(C(=O)NCC(F)(F)F)nn1Cc1nnc(C(F)(F)F)o1 [Compound 146] | 80 | 100 | 0 | 0 | 80 | 20 | 20 | 0 | 0 | 10 | 0 | 90 | 0 | 0 | 80 | 10 | 10 | 90 | 10 | 60 | Velvetleaf plant response rating [12, 21]: 20; Velvetleaf plant response rating [12, 22]: 10; Pigweed plant response rating (0 to 100 scale) [13]: 100; Pigweed plant response rating [13]: 100; Pigweed plant response rating [14, 21]: 90; Pigweed plant response rating [14, 22]: 60; Barnyardgrass plant response rating [15, 21]: 10; Barnyardgrass plant response rating [15, 22]: 0; Corn plant response rating [16, 21]: 0; Corn plant response rating [16, 22]: 0; Morningglory plant response rating (0 to 100 scale) [17]: 20; Morningglory plant response rating [17]: 100; Plant response rating, Rice [18]: 0; Plant response rating, Sedge, Umbrella [19]: 0; Corn plant response rating (0 to 100 scale) [20]: 0
2 | CCCCc1cc(C(=O)NCC(F)(F)F)nn1Cc1ccnc(C(F)(F)F)c1 [Compound 148] | 50 | 100 | 0 | 30 | 90 | 80 | 40 | 10 | 0 | 0 | 10 | 40 | 20 | 0 | 50 | 20 | 10 | 90 | 0 | 20 | Velvetleaf plant response rating [12, 21]: 60; Velvetleaf plant response rating [12, 22]: 20; Pigweed plant response rating (0 to 100 scale) [13]: 100; Pigweed plant response rating [13]: 100; Pigweed plant response rating [14, 21]: 100; Pigweed plant response rating [14, 22]: 90; Barnyardgrass plant response rating [15, 21]: 40; Barnyardgrass plant response rating [15, 22]: 10; Corn plant response rating [16, 21]: 40; Corn plant response rating [16, 22]: 10; Morningglory plant response rating (0 to 100 scale) [17]: 0; Morningglory plant response rating [17]: 30; Plant response rating, Rice [18]: 15; Plant response rating, Sedge, Umbrella [19]: 40; Corn plant response rating (0 to 100 scale) [20]: 0; Corn plant response rating [20]: 0
3 | CCCc1cc(C(=O)Nc2ccc(F)cc2)nn1Cc1cc(C(F)(F)F)nn1C [Compound 150] | 0 | 20 | 0 | 0 | 30 | 30 | 10 | 0 | 0 | 0 | 0 | 0 | 0 | 0 | 10 | 10 | 0 | 20 | 0 | 0 | Velvetleaf plant response rating [12, 21]: 10; Velvetleaf plant response rating [12, 22]: 10; Pigweed plant response rating (0 to 100 scale) [13]: 50; Pigweed plant response rating [13]: 100; Pigweed plant response rating [14, 21]: 80; Pigweed plant response rating [14, 22]: 30; Barnyardgrass plant response rating [15, 21]: 20; Barnyardgrass plant response rating [15, 22]: 0; Corn plant response rating [16, 21]: 10; Corn plant response rating [16, 22]: 0; Morningglory plant response rating (0 to 100 scale) [17]: 0; Morningglory plant response rating [17]: 0; Plant response rating, Rice [18]: 15; Plant response rating, Sedge, Umbrella [19]: 65; Corn plant response rating (0 to 100 scale) [20]: 0; Corn plant response rating [20]: 0
4 | CCCCc1cc(C(=O)NC2CC2)nn1Cc1ccnc(C(F)(F)F)c1 [Compound 151] | 80 | 100 | 0 | 0 | 90 | 50 | 70 | 20 | 0 | 10 | 0 | 60 | 10 | 0 | 80 | 30 | 50 | 100 | 0 | 70 | Velvetleaf plant response rating [12, 21]: 60; Velvetleaf plant response rating [12, 22]: 30; Pigweed plant response rating (0 to 100 scale) [13]: 70; Pigweed plant response rating [13]: 100; Pigweed plant response rating [14, 21]: 100; Pigweed plant response rating [14, 22]: 70; Barnyardgrass plant response rating [15, 21]: 50; Barnyardgrass plant response rating [15, 22]: 10; Corn plant response rating [16, 21]: 50; Corn plant response rating [16, 22]: 10; Morningglory plant response rating (0 to 100 scale) [17]: 0; Morningglory plant response rating [17]: 30; Plant response rating, Rice [18]: 0; Plant response rating, Sedge, Umbrella [19]: 60; Corn plant response rating (0 to 100 scale) [20]: 0; Corn plant response rating [20]: 0
